# In US4332818A, “1,4;3,6-Dianhydro-2,5-diazido-2,5-dideoxy-hexitols” (priority 1980, dated 1982):
# Columns and labels:
# mice [1] = assay: CNS test: Motility; assay type: in vivo; conditions: Mus musculus, po
# Description: (§1) The activity of the compounds of the Formula I has been tested and compared to that of Glutethimid in various tests. As test compound 1,4;3,6-dianhydro-2,5-diazido-2,5-dideoxy-L-mannitol is used.
# (§2) In Table I the LD50 and HD50 values measured on mice are disclosed (HD=hypnotic dose). Table II contains the minimal hypnotic doses measured on various animals (HDmin), while in Table III the results of various CNS tests on mice are summarized.
# mice [2] = assay: CNS test: Narcosis potentiating; assay type: in vivo; conditions: Mus musculus, po
# Description: as §1, §2
# Rat = assay: Minimal hypnotic dose (HDmin), rat; assay type: in vivo; conditions: ip
# Description: as §1, §2
# Cat = assay: Minimal hypnotic dose (HDmin), cat; assay type: in vivo; conditions: Felis catus, ip
# Description: as §1, §2
# mice [3] = assay: CNS test: Tranquillizing effect (fighting test); assay type: in vivo; conditions: Mus musculus, po
# Description: as §1, §2
# Mouse = assay: Minimal hypnotic dose (HDmin), mouse; assay type: in vivo; conditions: ip
# Description: as §1, §2
# mice [4] = assay: CNS test: Rotating rod; assay type: in vivo; conditions: Mus musculus, ip
# Description: as §1, §2
# mice [5] = assay: HD50 (hypnotic dose) on mice; assay type: in vivo; conditions: Mus musculus, HD = hypnotic dose
# Description: as §1, §2
# Rabbit = assay: Minimal hypnotic dose (HDmin), rabbit; assay type: in vivo; conditions: Oryctolagus cuniculus, ip
# Description: as §1, §2
# in vivo = conditions: mouse, mice
# Description: as §1, §2
smiles,measurement,setting,value
"CCC1(c2ccccc2)CCC(=O)NC1=O (stereo not drawn) [Glutethimid, 3-ethyl-3-phenyl-2,6-dioxo-piperidine]",ED50,mice [1],135 mg/kg
same,ED100,mice [2],30 mg/kg
same,minimal effective dose,Rat,100 mg/kg
same,minimal effective dose,Cat,125 mg/kg
same,ED50,mice [3],40 mg/kg
same,minimal effective dose,Mouse,100 mg/kg
same,ED50,mice [4],70 mg/kg
same,ED50,mice [5]; ip,135 mg/kg
same,ED50,mice [5]; po,200 mg/kg
same,minimal effective dose,Rabbit,175 mg/kg
same,LD50,in vivo; ip,305 mg/kg
same,LD50,in vivo; po,580 mg/kg
